According to patent publication US5510346A, “4-heteroaryl-1,3-benzodiazepines and 2-substituted-gamma-(heteroaryl)benzeneethanamines” (Hoechst Marion Roussel, Inc., priority 1991, dated 1996):

Experiments:
[1] = system: Geller Conflict Paradigm in Rats; test: Geller Conflict Paradigm in Rats (anxiolytic activity); format: in vivo; details: i.p.
From the text: The intraperitoneal (i.p.) dosages at which the following compounds show anxiolytic activity are: […]

[2] = system: N-methyl-D-aspartic acid (NMDA)-induced seizures; test: N-Methyl-D,L-Aspartic Acid Induced Seizure Assay (NMDA protection); format: in vivo; details: male Swiss Webster mice, ip; N-methyl-D,L-aspartic acid 350 mg/kg challenge; absence of clonic seizures during 30 minute observation
Method: In this assay, male Swiss Webster mice (Charles River), 18-25 grams are used. Animals are ordered at 33 to 36 days of age and can be used for 8 days after arrival. They are housed for at least 24 hours in a climate controlled animal colony with food and water available ad libimm. On the day of testing, animals are brought to the laboratory and randomly assigned to groups. N-Methyl-D,L-aspartic acid (350 mg) is dissolved in 10 ml of saline and mixed thoroughly with a homogenizer for 1-2 minutes. Test compounds are prepared in distilled water and, if insoluable, a suitable surfactant is added. For a primary screen the test compound is administered at 60 mg/kg, ip (10 ml/kg), to groups of ten mice, 30 minutes prior to challenge with N-methyl-D,L-aspartic acid (350 mg/kg, […]). After N-Methyl-D,L-aspartic acid administration animals are placed individually in clear plastic cyclinders (12"×5.5"×1/4") and then observed for clonic seizures. N-methyl-D,L-aspartic acid will produce clonic seizures, and sometimes tonic seizures and death, in vehicle control animals.
A clonic convulsion is defined as a single episode of clonic spasms of a least a 3 second duration. […]
Data is calculated by the method of J. T. Litchfield, Jr. and F. Wileoxon. […]
The normalized percent protection is calculated using the following formula: [formula]

Molecule: CCNC(Cc1ccccc1N)c1sccc1C.Cl.Cl (stereo not drawn) [2-Amino-N-ethyl-α-(3-methyl-2-thienyl)benzeneethanamine dihydrochloride]
- Anti-Conflict Response % Change Compared to Control ([1]; 1 mg/kg): +100%
- Anti-Conflict Response % Change Compared to Control ([1]; 5 mg/kg): +70%

Molecule: CN1C(=O)CN=C(c2ccccc2)c2cc(Cl)ccc21 [Diazepam, reference compound]
- Anti-Conflict Response % Change Compared to Control ([1]; 10 mg/kg): +180%
- Anti-Conflict Response % Change Compared to Control ([1]; 20 mg/kg): +630%

Molecule: 2-Amino-α-(3-methyl-3-thienyl)benzeneethanamine
- NMDA Protection ED50 [2]: 19.0 mg/kg
